The assay has as its target T1, human PD-1 / PD-L1-Ig binding on Jurkat cell line over-expressing human PD-1 (Jurkat-PD-1) (Homo sapiens, UniProt Q15116).
T1 construct: expressed in transfected cells; host or cells: Jurkat
The assay can be described thus: Jurkat-PD-1 Cell Binding High-Content Screening Assay (CBA). It counts as cell-based. Conditions: Jurkat-PD-1 cells, PE-labeled PD-L1-Ig 20 nM final; read-out: Jurkat HPD1_PDL1 IC50. Summed up: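 Binding of fluorescent PD-L1-Ig (phycoerythrin linked via the Ig tag, 20 nM final) to PD-1-overexpressing Jurkat cells was imaged after a 2 h, 37° C compound pretreatment and 1 hour ligand incubation.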

Where a SMILES comes first, the peptide text is derived from it. Bridges are numbered along the chain shown (N, C = ends). [ ]: non-standard residue; d: D form. The star is where a group is joined. ξ: configuration not given here. Phe(4-COOH) = N[C@@H](Cc1ccc(C(=O)O)cc1)C(=O)O; Bip = N[C@@H](Cc1ccc(-c2ccccc2)cc1)C(=O)O; Phe(3-Me) = Cc1cccc(C[C@H](N)C(=O)O)c1; mTyr = N[C@@H](Cc1cccc(O)c1)C(=O)O; 4Pal = N[C@@H](Cc1ccncc1)C(=O)O; Cha = N[C@@H](CC1CCCCC1)C(=O)O; Cit = NC(=O)NCCC[C@H](N)C(=O)O; Ile(3ξ) = CCC(C)[C@H](N)C(=O)O; Thr(3ξ) = CC(O)[C@H](N)C(=O)O; Carboxymethyl = O=C(O)C*; Orn = NCCC[C@H](N)C(=O)O; Pra = C#CC[C@H](N)C(=O)O; Dab = NCC[C@H](N)C(=O)O; Nva = CCC[C@H](N)C(=O)O; Dap = NC[C@H](N)C(=O)O; X9 = c1cn(CCCN*)cn1

T1 sequence (Q15116 25-288): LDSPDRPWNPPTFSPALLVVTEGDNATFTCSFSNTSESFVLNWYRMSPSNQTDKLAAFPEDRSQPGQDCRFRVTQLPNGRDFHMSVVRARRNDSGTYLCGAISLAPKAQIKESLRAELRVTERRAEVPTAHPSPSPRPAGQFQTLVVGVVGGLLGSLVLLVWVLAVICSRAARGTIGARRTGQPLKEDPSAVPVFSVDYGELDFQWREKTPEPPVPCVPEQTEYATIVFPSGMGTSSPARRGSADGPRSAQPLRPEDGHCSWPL

As to `CC(C)C[C@@H]1NC(=O)[C@H](Cc2c[nH]c3ccccc23)NC(=O)[C@H](CC(=O)O)NC(=O)[C@H](Cc2ccncc2)NC(=O)[C@H](Cc2ccc(OCC(=O)O)cc2)NC(=O)CSC[C@@H](C(=O)NCC(N)=O)NC(=O)[C@H](CO)NC(=O)[C@H](C(C)C)NC(=O)[C@H](CC(C)C)NC(=O)[C@H](CCN)NC(=O)[C@@H](CC(C)C)NC(=O)[C@H](CCCN)NC(=O)[C@H](C(C)C)NC(=O)[C@H](Cc2ccc(-c3ccccc3)cc2)NC1=O` [Compound 1258] ({CH2CO}-Y(Carboxymethyl)[4Pal]DWL[Bip]V[Orn][dL][Dab]LVSCG-NH2; thioether N-14), the IC50 (commonly the concentration at which inhibition is half-maximal) worked out at 8 nM.
Consider `CCNC(=O)[C@H](CCN)NC(=O)[C@@H]1CSCC(=O)N[C@@H](CN)C(=O)N[C@@H](Cc2ccc(OCC(=O)O)cc2)C(=O)N[C@@H](CC(=O)O)C(=O)N[C@@H](Cc2cccc(O)c2)C(=O)N[C@@H](C(C)C)C(=O)N[C@@H](Cc2ccc(-c3ccccc3)cc2)C(=O)N[C@@H](Cc2ccc(O)cc2)C(=O)N[C@@H](CCCN)C(=O)N[C@H](CC(C)C)C(=O)N[C@@H](CCN)C(=O)N[C@@H](CC2CCCCC2)C(=O)N[C@@H](C(C)C)C(=O)N[C@@H](CCCN)C(=O)N1` [Compound 2046] ({CH2CO}-[Dap]Y(Carboxymethyl)D[mTyr]V[Bip]Y[Orn][dL][Dab][Cha]V[Orn]C[Dab]-NHEt; thioether N-14), for which the IC50 was found to be 16.7 nM.
For the molecule `CC(C)C[C@@H]1NC(=O)[C@H](Cc2c[nH]c3ccccc23)NC(=O)[C@H](CC(=O)O)NC(=O)[C@H](Cc2ccc(OCC(=O)O)cc2)NC(=O)[C@H](C(C)O)NC(=O)CSC[C@@H](C(N)=O)NC(=O)[C@H](CO)NC(=O)[C@H](C(C)C)NC(=O)[C@H](CC2CCCCC2)NC(=O)[C@H](CCC(=O)O)NC(=O)[C@@H](CC(C)C)NC(=O)[C@H](Cc2cnc[nH]2)NC(=O)[C@H](C(C)C)NC(=O)[C@H](Cc2ccc(-c3ccccc3)cc2)NC1=O` (stereo partly drawn) [Compound 2610] ({CH2CO}-[Thr(3ξ)]Y(Carboxymethyl)DWL[Bip]VH[dL]E[Cha]VSC-NH2; thioether N-14), the IC50 is 78.3 nM.
Regarding `C#CC[C@H](NC(=O)[C@H](CCN)NC(=O)[C@@H]1CSCC(=O)N[C@@H](CCC)C(=O)N[C@@H](Cc2ccc(OCC(=O)O)cc2)C(=O)N[C@@H](CC(=O)O)C(=O)N[C@@H](Cc2cccc(C)c2)C(=O)N[C@@H](Cc2ccc(C(=O)O)cc2)C(=O)N[C@@H](Cc2ccc(-c3ccccc3)cc2)C(=O)N[C@@H](Cc2ccc(C(=O)O)cc2)C(=O)N[C@@H](CCCN)C(=O)N[C@H](CC(C)C)C(=O)N[C@@H](CCN)C(=O)N[C@@H](CC2CCCCC2)C(=O)N[C@@H](C(C)C)C(=O)N[C@@H](CCC(=O)O)C(=O)N1)C(=O)O` [Compound 1822] ({CH2CO}-[Nva]Y(Carboxymethyl)D[Phe(3-Me)][Phe(4-COOH)][Bip][Phe(4-COOH)][Orn][dL][Dab][Cha]VEC[Dab][Pra]-OH; thioether N-14), the IC50 is 5.8 nM.
To `COc1ccc(C[C@@H]2NC(=O)[C@H](CCN)NC(=O)[C@@H](CC(C)C)NC(=O)[C@H](CCCN)NC(=O)[C@H](CCCNC(N)=O)NC(=O)[C@H](Cc3ccc(-c4ccccc4)cc3)NC(=O)[C@H](C(C)C)NC(=O)[C@H](Cc3c[nH]c4ccccc34)NC(=O)[C@H](CC(=O)O)NC(=O)[C@H](Cc3ccc(OCC(=O)O)cc3)NC(=O)[C@H](CN)NC(=O)CSC[C@@H](C(=O)N[C@@H](C)C(N)=O)NC(=O)[C@H]([C@@H](C)O)NC(=O)[C@H](C(C)C)NC2=O)cc1` [Compound 1351] ({CH2CO}-[Dap]Y(Carboxymethyl)DWV[Bip][Cit][Orn][dL][Dab]Y(Me)VTCA-NH2; thioether N-14) belongs 121 nM; to `Cc1cccc(C[C@@H]2NC(=O)[C@H](CC(=O)O)NC(=O)[C@H](Cc3ccc(O)cc3)NC(=O)[C@H](CC(N)=O)NC(=O)CSC[C@@H](C(=O)N[C@@H](C)C(N)=O)NC(=O)[C@H]([C@@H](C)O)NC(=O)[C@H](C(C)C)NC(=O)[C@H](CC3CCCCC3)NC(=O)[C@H](CCN)NC(=O)[C@@H](CC(C)C)NC(=O)[C@H](CCCN)NC(=O)[C@H](CCC(=O)O)NC(=O)[C@H](Cc3ccc(-c4ccccc4)cc3)NC(=O)[C@H](C(C)C)NC2=O)c1` [Compound 1420] ({CH2CO}-NYD[Phe(3-Me)]V[Bip]E[Orn][dL][Dab][Cha]VTCA-NH2; thioether N-14), 7.5 nM.
Regarding `CC[C@H](C)[C@@H]1NC(=O)[C@H](Cc2ccc(-c3ccccc3)cc2)NC(=O)[C@H](C(C)C)NC(=O)[C@H](Cc2c[nH]c3ccccc23)NC(=O)[C@H](CC(=O)O)NC(=O)[C@H](Cc2ccc(OCC(=O)O)cc2)NC(=O)[C@H](CN)NC(=O)CSC[C@@H](C(=O)N[C@@H](C)C(N)=O)NC(=O)[C@H]([C@@H](C)O)NC(=O)[C@H](C(C)C)NC(=O)[C@H](CC2CCCCC2)NC(=O)[C@H](CCN)NC(=O)[C@@H](CC(C)C)NC(=O)[C@H](CCCN)NC1=O` [Compound 1391], the IC50 worked out at 5 nM.
As to `Cc1cccc(C[C@@H]2NC(=O)[C@H](CC(=O)O)NC(=O)[C@H](Cc3ccc(C(=O)O)cc3)NC(=O)[C@H](CN)NC(=O)CSC[C@@H](C(=O)N[C@@H](C)C(=O)NCCCn3ccnc3)NC(=O)[C@H]([C@@H](C)O)NC(=O)[C@H](C(C)C)NC(=O)[C@H](CC(C)C)NC(=O)[C@H](CCN)NC(=O)[C@@H](CC(C)C)NC(=O)[C@H](CCCN)NC(=O)[C@H](C(C)C)NC(=O)[C@H](Cc3ccc(-c4ccccc4)cc3)NC(=O)[C@H](C(C)C)NC2=O)c1` [Compound 2005] ({CH2CO}-[Dap][Phe(4-COOH)]D[Phe(3-Me)]V[Bip]V[Orn][dL][Dab]LVTCA-X9; thioether N-14), the IC50 was determined as 5.1 nM.
Consider `CC(C)C[C@H]1NC(=O)[C@H](CCCN)NC(=O)[C@H](CCCNC(N)=O)NC(=O)[C@H](Cc2ccc(-c3ccccc3)cc2)NC(=O)[C@H](C(C)C)NC(=O)[C@H](Cc2c[nH]c3ccccc23)NC(=O)[C@H](CC(=O)O)NC(=O)[C@H](Cc2ccc(OCC(=O)O)cc2)NC(=O)[C@H](CN)NC(=O)CSC[C@@H](C(=O)N[C@@H](C)C(N)=O)NC(=O)[C@H]([C@@H](C)O)NC(=O)[C@H](C(C)C)NC(=O)[C@H](Cc2ccc(O)cc2)NC(=O)[C@H](CCN)NC1=O` [Compound 1346] ({CH2CO}-[Dap]Y(Carboxymethyl)DWV[Bip][Cit][Orn][dL][Dab]YVTCA-NH2; thioether N-14), for which the IC50 was 95.8 nM.
For `CC(C)C[C@@H]1NC(=O)[C@H](Cc2c[nH]c3ccccc23)NC(=O)[C@H](CC(=O)O)NC(=O)[C@H](Cc2ccc(OCC(=O)O)cc2)NC(=O)[C@H](C(C)O)NC(=O)CSC[C@@H](C(=O)N[C@@H](CC(N)=O)C(N)=O)NC(=O)[C@H](CO)NC(=O)[C@H](C(C)C)NC(=O)[C@H](CC2CCCCC2)NC(=O)[C@H](CCN)NC(=O)[C@@H](CC(C)C)NC(=O)[C@H](CCCN)NC(=O)[C@H](CC(N)=O)NC(=O)[C@H](Cc2ccc(-c3ccccc3)cc2)NC1=O` (stereo partly drawn) [Compound 2557] ({CH2CO}-[Thr(3ξ)]Y(Carboxymethyl)DWL[Bip]N[Orn][dL][Dab][Cha]VSCN-NH2; thioether N-14), the IC50 came out at 68.6 nM.
For `CC[C@H](C)[C@@H]1NC(=O)[C@H](Cc2ccc(-c3ccccc3)cc2)NC(=O)[C@H](C(C)C)NC(=O)[C@H](Cc2c[nH]c3ccccc23)NC(=O)[C@H](CC(=O)O)NC(=O)[C@H](Cc2ccc(OCC(=O)O)cc2)NC(=O)[C@H](CN)NC(=O)CSC[C@@H](C(=O)N[C@@H](C)C(N)=O)NC(=O)[C@H]([C@@H](C)O)NC(=O)[C@H](C(C)C)NC(=O)[C@H](Cc2ccc(O)cc2)NC(=O)[C@H](CCN)NC(=O)[C@@H](CC(C)C)NC(=O)[C@H](CCCN)NC1=O` [Compound 1678] ({CH2CO}-[Dap]Y(Carboxymethyl)DWV[Bip]I[Orn][dL][Dab]YVTCA-NH2; thioether N-14), the IC50 is 52 nM.
Regarding `Cc1cccc(C[C@@H]2NC(=O)[C@H](CC(=O)O)NC(=O)[C@H](Cc3ccc(OCC(=O)O)cc3)NC(=O)[C@H](CN)NC(=O)CSC[C@@H](C(=O)N[C@@H](CCN)C(N)=O)NC(=O)[C@H]([C@@H](C)O)NC(=O)[C@H](C(C)C)NC(=O)[C@H](CC3CCCCC3)NC(=O)[C@H](CCN)NC(=O)[C@@H](CC(C)C)NC(=O)[C@H](CCCN)NC(=O)[C@H](CCCNC(N)=O)NC(=O)[C@H](Cc3ccc(-c4ccccc4)cc3)NC(=O)[C@H](C(C)C)NC2=O)c1` [Compound 2010] ({CH2CO}-[Dap]Y(Carboxymethyl)D[Phe(3-Me)]V[Bip][Cit][Orn][dL][Dab][Cha]VTC[Dab]-NH2; thioether N-14), the IC50 came out at 10.3 nM.
`Cc1cccc(C[C@@H]2NC(=O)[C@H](CC(=O)O)NC(=O)[C@H](Cc3ccc(C(=O)O)cc3)NC(=O)[C@H](Cc3ccncc3)NC(=O)CSC[C@@H](C(=O)N[C@@H](CC(N)=O)C(N)=O)NC(=O)[C@H](CO)NC(=O)[C@H](C(C)C)NC(=O)[C@H](CC3CCCCC3)NC(=O)[C@H](CCN)NC(=O)[C@@H](CC(C)C)NC(=O)[C@H](CCCN)NC(=O)[C@H](Cc3ccc(O)cc3)NC(=O)[C@H](Cc3ccc(-c4ccccc4)cc3)NC(=O)[C@H](C(C)C)NC2=O)c1` [Compound 2289] ({CH2CO}-[4Pal][Phe(4-COOH)]D[Phe(3-Me)]V[Bip]Y[Orn][dL][Dab][Cha]VSCN-NH2; thioether N-14): the IC50 is 16.4 nM.
As to `CCC(C)[C@@H]1NC(=O)[C@H](Cc2c[nH]c3ccccc23)NC(=O)[C@H](CC(=O)O)NC(=O)[C@H](Cc2ccc(OCC(=O)O)cc2)NC(=O)[C@H](C(C)O)NC(=O)CSC[C@@H](C(=O)N[C@@H](CC(N)=O)C(=O)O)NC(=O)[C@H](CO)NC(=O)[C@H](C(C)C)NC(=O)[C@H](CC(C)C)NC(=O)[C@H](CCN)NC(=O)[C@@H](CC(C)C)NC(=O)[C@H](CCCN)NC(=O)[C@H](C(C)CC)NC(=O)[C@H](Cc2ccc(-c3ccccc3)cc2)NC1=O` (stereo partly drawn) [Compound 2573] ({CH2CO}-[Thr(3ξ)]Y(Carboxymethyl)DW[Ile(3ξ)][Bip][Ile(3ξ)][Orn][dL][Dab]LVSCN-OH; thioether N-14), the IC50 turned out to be 162 nM.

Values taken from patent US20250163104A1, “MACROCYCLIC IMMUNOMODULATORS” (priority 2021, published 2025).
